Our source for the MIC values is patent publication US8217029B2, “Oxazolidinone antibiotics” (Actelion Pharmaceuticals Ltd, priority 2007, dated 2012).

For orientation: MIC means the least concentration at which growth counts as inhibited. Higher therefore signals weaker potency.

In brackets after ≈: the same amount, converted by molar mass.

This assay has as its system S aureus A798. As to the kind of experiment: Minimal inhibitory concentration (MIC), microdilution method in cation-adjusted Mueller-Hinton Broth following NCCLS guidelines. Format: cell-based. To be noted: pH of test medium 7.2-7.3. How it is done:
These assays have been performed following the description given in “Methods for dilution Antimicrobial Susceptibility Tests for Bacteria that Grow Aerobically, 4th ed.; Approved standard: NCCLS Document M7-A4; National Committee for Clinical Laboratory Standards Villanova, Pa., USA, 1997”. Minimal inhibitory concentrations (MICs; mg/l) were determined in cation-adjusted Mueller-Hinton Broth by a microdilution method following NCCLS guidelines (National Committee for Clinical Laboratory Standards. Methods for Dilution Antimicrobial Susceptibility). The pH of the test medium was 7.2-7.3. All Example compounds were tested against several Gram positive and Gram negative bacteria.
(In broth dilution the organism is exposed to a series of concentrations in liquid medium.)

As to `COc1ccc2nccc(N3CCC(CNC[C@@H]4CN(c5ccc6c(c5)NC(=O)CS6)C(=O)O4)C3)c2n1` (mixture of isomers) [Example 80, 6-[(R)-5-({[(RS)-1-(6-Methoxy-[1,5]naphthyridin-4-yl)-pyrrolidin-3-ylmethyl]-amino}-methyl)-2-oxo-oxazolidin-3-yl]-4H-benzo[1,4]thiazin-3-one], the MIC is at most 0.031 µg/mL.

On to `COc1ccc2nccc(N3CCC(CNC(=O)[C@@H]4CN(c5ccc6c(c5)OCCO6)C(=O)O4)C3)c2n1` (mixture of isomers) [Example 81, (S)-3-(2,3-Dihydro-benzo[1,4]dioxin-6-yl)-2-oxo-oxazolidine-5-carboxylic acid [(RS)-1-(6-methoxy-[1,5]naphthyridin-4-yl)-pyrrolidin-3-ylmethyl]-amide], for which the MIC worked out at 0.125 µg/mL. Next, `COc1ccc2nccc(N3CCC(CNC(=O)[C@@H]4CN(c5ccc(C)c(F)c5)C(=O)O4)C3)c2n1` (mixture of isomers) [Example 82, (S)-3-(3-Fluoro-4-methyl-phenyl)-2-oxo-oxazolidine-5-carboxylic acid [(RS)-1-(6-methoxy-[1,5]naphthyridin-4-yl)-pyrrolidin-3-ylmethyl]-amide]: at most 0.031 µg/mL; `COc1ccc2nccc(N3C[C@@H](CNC[C@@H]4CN(c5ccc6c(c5)NC(=O)CS6)C(=O)O4)[C@@H](O)C3)c2n1` (mixture of isomers) [Example 83, 6-[(R)-5-({[(3RS)-(4RS)-4-Hydroxy-1-(6-methoxy-[1,5]naphthyridin-4-yl)-pyrrolidin-3-ylmethyl]-amino}-methyl)-2-oxo-oxazolidin-3-yl]-4H-benzo[1,4]thiazin-3-one]: 0.25 µg/mL; `COc1ccc2nccc(N3CCC(C(=O)NC[C@@H]4CN(c5ccc(C)c(F)c5)C(=O)O4)C3)c2n1` (mixture of isomers) [Example 84, (RS)-1-(6-Methoxy-[1,5]naphthyridin-4-yl)-pyrrolidine-3-carboxylic acid [(R)-3-(3-fluoro-4-methyl-phenyl)-2-oxo-oxazolidin-5-ylmethyl]-amide]: at most 0.031 µg/mL. With `COc1ccc2nccc(N3CCC(C(=O)NC[C@@H]4CN(c5ccc6c(c5)OCCO6)C(=O)O4)C3)c2n1` (mixture of isomers) [Example 85, (RS)-1-(6-Methoxy-[1,5]naphthyridin-4-yl)-pyrrolidine-3-carboxylic acid [(R)-3-(2,3-dihydro-benzo[1,4]dioxin-6-yl)-2-oxo-oxazolidin-5-ylmethyl]-amide] the figure was 0.25 µg/mL; with `COc1ccc2nccc(N3CC[C@H](NCCC4CN(c5ccc6c(c5)NC(=O)CS6)C(=O)O4)C3)c2n1` (mixture of isomers) [Example 86, 6-((RS)-5-{2-[(S)-1-(6-Methoxy-[1,5]naphthyridin-4-yl)-pyrrolidin-3-ylamino]-ethyl}-2-oxo-oxazolidin-3-yl)-4H-benzo[1,4]thiazin-3-one], at most 0.031 µg/mL. Next, `COc1ccc2nccc(N3CC[C@@H](NCCC4CN(c5ccc6c(c5)NC(=O)CS6)C(=O)O4)C3)c2n1` (mixture of isomers) [Example 87, 6-((RS)-5-{2-[(R)-1-(6-Methoxy-[1,5]naphthyridin-4-yl)-pyrrolidin-3-ylamino]-ethyl}-2-oxo-oxazolidin-3-yl)-4H-benzo[1,4]thiazin-3-one]: at most 0.031 µg/mL; `COc1ccc2nccc(N3CC[C@@H]4CN(C[C@@H]5CN(c6ccc7c(c6)OCCO7)C(=O)O5)C[C@@H]43)c2n1` (mixture of isomers) [Example 90, (R)-3-(2,3-Dihydro-benzo[1,4]dioxin-6-yl)-5-{[(3aR*,6aR*)-1-(6-methoxy-[1,5]naphthyridin-4-yl)-hexahydro-pyrrolo[3,4-b]pyrrol-5-yl]-methyl}-oxazolidin-2-one]: 4 µg/mL. With `COc1ccc2nccc(N3CC[C@@H]4CN(C(=O)[C@@H]5CN(c6ccc7c(c6)OCCO7)C(=O)O5)C[C@@H]43)c2n1` (mixture of isomers) [Example 92, (S)-3-(2,3-Dihydro-benzo[1,4]dioxin-6-yl)-5-[(3aR*,6aR*)-1-(6-methoxy-[1,5]naphthyridin-4-yl)-hexahydro-pyrrolo[3,4-b]pyrrole-5-carbonyl]-oxazolidin-2-one], the MIC is 0.25 µg/mL. With `COc1ccc2nccc(N3C[C@H]4CCN(C[C@@H]5CN(c6ccc7c(c6)NC(=O)CS7)C(=O)O5)[C@H]4C3)c2n1` (mixture of isomers) [Example 93, 6-{(R)-5-{[(3aR*,6aR*)-5-(6-Methoxy-[1,5]naphthyridin-4-yl)-hexahydro-pyrrolo[3,4-b]pyrrol-1-yl]-methyl}-2-oxo-oxazolidin-3-yl}-4H-benzo[1,4]thiazin-3-one] the figure was at most 0.031 µg/mL; with `COc1ccc2nccc(N3C[C@H]4CCN(C[C@@H]5CN(c6ccc7c(c6)OCCO7)C(=O)O5)[C@H]4C3)c2n1` (mixture of isomers) [Example 94, (R)-3-(2,3-Dihydro-benzo[1,4]dioxin-6-yl)-5-{[(3aR*,6aR*)-5-(6-methoxy-[1,5]naphthyridin-4-yl)-hexahydro-pyrrolo[3,4-b]pyrrol-1-yl]-methyl}-oxazolidin-2-one], 2 µg/mL; with `COc1ccc2nccc(N3C[C@H]4CCN(C(=O)[C@@H]5CN(c6ccc7c(c6)OCCO7)C(=O)O5)[C@H]4C3)c2n1` (mixture of isomers) [Example 95, (S)-3-(2,3-Dihydro-benzo[1,4]dioxin-6-yl)-5-[(3aR*,6aR*)-5-(6-methoxy-[1,5]naphthyridin-4-yl)-hexahydro-pyrrolo[3,4-b]pyrrole-1-carbonyl]-oxazolidin-2-one], 0.125 µg/mL. Consider `COc1ccc2nccc(N3CCCC(NC[C@@H]4CN(c5ccc6c(c5)OCCO6)C(=O)O4)C3)c2n1` (mixture of isomers) [Example 102, (R)-3-(2,3-Dihydro-benzo[1,4]dioxin-6-yl)-5-{[(RS)-1-(6-methoxy-[1,5]naphthyridin-4-yl)-piperidin-3-ylamino]-methyl}-oxazolidin-2-one], for which the MIC stood at 4 µg/mL. With `COc1ccc2nccc(N3CCC(CN(C)C[C@@H]4CN(c5ccc6c(c5)NC(=O)CS6)C(=O)O4)C3)c2n1` (mixture of isomers) [Example 117, 6-[(R)-5-({[(RS)-1-(6-Methoxy-[1,5]naphthyridin-4-yl)-pyrrolidin-3-ylmethyl]-methyl-amino}-methyl)-2-oxo-oxazolidin-3-yl]-4H-benzo[1,4]thiazin-3-one] the figure was at most 0.031 µg/mL; with `COc1ccc2nccc(N3CCC(O)(CNC[C@@H]4CN(c5ccc6c(c5)NC(=O)CS6)C(=O)O4)C3)c2n1` (mixture of isomers) [Example 129, 6-[(R)-5-({[(RS)-3-Hydroxy-1-(6-methoxy-[1,5]naphthyridin-4-yl)-pyrrolidin-3-ylmethyl]-amino}-methyl)-2-oxo-oxazolidin-3-yl]-4H-benzo[1,4]thiazin-3-one], 0.063 µg/mL; with `COc1ccc2nccc(C3(O)CCN(CC4CN(c5ccc6c(c5)OCCO6)C(=O)O4)CC3)c2n1` (racemic) [Example 3, (RS)-3-(2,3-Dihydro-benzo[1,4]dioxin-6-yl)-5-[4-hydroxy-4-(6-methoxy-[1,5]naphthyridin-4-yl)-piperidin-1-ylmethyl]-oxazolidin-2-one], at most 0.031 µg/mL. With `COc1ccc2ncnc(N3CCC(O)(CC4CN(c5ccc6c(c5)OCCO6)C(=O)O4)CC3)c2c1` (racemic) [Example 4, (RS)-3-(2,3-Dihydro-benzo[1,4]dioxin-6-yl)-5-[4-hydroxy-1-(6-methoxy-quinazolin-4-yl)-piperidin-4-ylmethyl]-oxazolidin-2-one] the figure was at most 0.031 µg/mL; with `COc1ccc2nccc(N3CCC(O)(CC4CN(c5ccc6c(c5)OCCO6)C(=O)O4)CC3)c2n1` (racemic) [Example 5, (RS)-3-(2,3-Dihydro-benzo[1,4]dioxin-6-yl)-5-[4-hydroxy-1-(6-methoxy-[1,5]naphthyridin-4-yl)-piperidin-4-ylmethyl]-oxazolidin-2-one], at most 0.031 µg/mL.

`COc1ccc2ncnc(N3CCN(CC4CN(c5ccc6c(c5)OCCO6)C(=O)O4)CC3)c2c1` (racemic) [Example 6, (RS)-3-(2,3-Dihydro-benzo[1,4]dioxin-6-yl)-5-[4-(6-methoxy-quinazolin-4-yl)-piperazin-1-ylmethyl]-oxazolidin-2-one]: the minimum inhibitory concentration (MIC) was at most 0.031 µg/mL. With `COc1ccc2ncnc(N3CCN(CC4CN(c5ccc6c(c5)NC(=O)CS6)C(=O)O4)CC3)c2c1` (racemic) [Example 7, (RS)-6-{5-[4-(6-Methoxy-quinazolin-4-yl)-piperazin-1-ylmethyl]-2-oxo-oxazolidin-3-yl}-4H-benzo[1,4]thiazin-3-one] the figure was at most 0.031 µg/mL. Next, `COc1ccc2nccc(N3CCN(CC4CN(c5ccc6c(c5)OCCO6)C(=O)O4)CC3)c2n1` (racemic) [Example 8, (RS)-3-(2,3-Dihydro-benzo[1,4]dioxin-6-yl)-5-[4-(6-methoxy-[1,5]naphthyridin-4-yl)-piperazin-1-ylmethyl]-oxazolidin-2-one]: at most 0.031 µg/mL; `COc1ccc2nccc(N3CCN(CC4CN(c5ccc(C)cn5)C(=O)O4)CC3)c2n1` (racemic) [Example 43, (RS)-5-[4-(6-Methoxy-[1,5]naphthyridin-4-yl)-piperazin-1-ylmethyl]-3-(5-methyl-pyridin-2-yl)-oxazolidin-2-one]: 1 µg/mL (≈ 2.3 µM); `COc1ccc2nccc(N3CCN(CC4CN(c5ccc(C(F)(F)F)cn5)C(=O)O4)CC3)c2n1` (racemic) [Example 44, (RS)-5-[4-(6-Methoxy-[1,5]naphthyridin-4-yl)-piperazin-1-ylmethyl]-3-(5-trifluoromethyl-pyridin-2-yl)-oxazolidin-2-one]: 0.5 µg/mL (≈ 1.02 µM). With `COc1ccc2nccc(N3CC(NCCC4CN(c5ccc6c(c5)NC(=O)CS6)C(=O)O4)C3)c2n1` (racemic) [Example 58, (RS)-6-(5-{2-[1-(6-Methoxy-[1,5]naphthyridin-4-yl)-azetidin-3-ylamino]-ethyl}-2-oxo-oxazolidin-3-yl)-4H-benzo[1,4]thiazin-3-one] the figure was at most 0.031 µg/mL.
